Here are results for three compounds from patent publication US12544400B2, “Treatment of myopic progression” (University of Utah Research Foundation, priority 2018, dated 2026).

One series deals with lysyl oxidase (LOX). Description: peroxidase-coupled fluorometric lysyl oxidase activity assay on conditioned medium of cultured corneal stroma cells. It is filed as cell-based. The note with it: 0.0016 mg/mL CuSO4 in BSS vs BSS control, fibroblast cells from normal corneas and corneas having low corneal stiffness, FIGS. 1A-1B. As to the method: Cultured corneal stroma cells from normal corneas and corneas having low corneal stiffness (n=3 each) in 10% FBS DMEM were either exposed to BSS control or 0.0016 mg/mL CuSO4 in balanced salt solution (BSS) then filtered through a 0.25 μm filter. Conditioned culture medium underwent a peroxidase-coupled fluorometric activity assay for lysyl oxidase (LOX).
Tissues were collected under sterile techniques in an operative setting. Tissue samples were stored in a 10 cm tissue culture dish in an Optisol solution. Corneal tissue was suspended in 15% fetal bovine serum (FBS) DMEM/F12 with penicillin/streptomycin. Epithelium and Descemet's membrane were removed mechanically under a stereo microscope. The samples were further cut into small pieces by a surgical scissor, and added to 1 mg/mL collagenase; 10 mL per cornea was used. The sample pieces were plated to a 10 cm tissue culture dish and placed in a tissue culture incubator at 37° C. with 5% CO2. After 5 days, the cells were harvested and plated in 10% FBS DMEM without phenol red.
LOX enzyme activity in culture medium was measured using a peroxidase-coupled fluorometric assay using Amplex red. […] The fluorescence of oxidized Amplex red was recorded every 10 minutes using fluorescence plate reader. After subtracting the background fluorescence, the fluorescence intensity was plotted against the incubation time (FIGS. 1A and 1B).

Another series has as its system human cadaver corneas. The series can be described thus: cornea radial strain measurement, human cadaver corneas immersed in CuSO4. As to the method:
(§1) Cornea radial strain measurements were performed on human cadaver corneas and on rabbit corneas. Human cadaver corneas (n=2 pairs) were cultured as previously mentioned in Example 1. The treated group was immersed in 0.0016 mg/ml CuSO4 for 2 weeks. The samples also contained a small portion of sclera at both ends. Mineral oil was applied on the surface of the sclera-cornea-sclera strip to minimize tissue dehydration. Rabbit corneas were divided into 4 groups. Two groups were treatment groups receiving either CuSO4 pentahydrate 0.0025 mg/ml three times per day or CuSO4 pentahydrate 0.0025 mg/ml once per day. Two groups served as control receiving only BSS.
(§2) The sample was coupled between a motor and a transducer that applied a controlled pressure from 5-30 mmHg and measured the resultant radial strain. The sample length between the two gripping jaws was approximately 10 mm. Sample geometric information, including width and thickness, was input into the Rheometrics System Analyzer (RSA) control panel. Sample thickness was measured by an ultrasound pachymeter (DGH 550 Pa-chette2; DGH Technology, Exton, PA).

Another series relates to rabbit corneas. Description: cornea radial strain / corneal biomechanics, rabbit corneas after eye drop treatment. It is filed as in vivo. The note with it: CuSO4 pentahydrate 0.0025 mg/ml once or three times per day; compared with laser cross-linking; FIG. 3. On the procedure: as §1, §2
For series [1], the system named is New Zealand white rabbits. Description: rabbit corneal topography (diopter measurements). It is filed as in vivo. The note with it: 0.0025 mg/ml once or three times per day or 0.025 mg/ml once per day, 5 weeks; controls no drops, BSS, artificial tears; FIG. 4. As to the method: Copper sulfate pentahydrate (CuSO4) at 0.0025 mg/ml was administered to New Zealand white rabbits at a dose of once per day and three times per day. Additionally, a high concentration sample of 0.025 mg/ml CuSO4 pentahydrate was administered to New Zealand with rabbits once per day during the treatment period. Three different controls were administered either no drops, BSS, or artificial tears. Each of the 6 groups included 6 test subjects each. Topography images were taken before treatment and weekly for 5 weeks. Diopter measurements were the mean K values and at 3 mm. These values were compared to diopter measurements in laser cross-linked corneas after 1 month and 1 year.

The test system of a further series is rabbits. The series can be described thus: safety of copper eye drops in vivo (ERG, slit-lamp, AS-OCT, histology). The arrangement: species or system rabbit. The conditions noted are these: 0.0025 mg/ml TID or QD, 6 weeks. On the procedure:
Copper sulfate (CuSO4) pentahydrate solution was prepared at a concentration of 0.0025 mg/ml and administered three times a day (TID) or once a day (QD) to rabbits. An anterior segment evaluation was performed with slit-lamp biomicroscopy and Heidelberg Spectralis anterior segment optical coherence tomography (AS-OCT). Two rabbits (n=4 eyes) were sacrificed at each of day 1, week 1, week 4, and week 6 for copper levels in eye tissues and compared to control (no drops) rabbits. Aqueous humor, vitreous, retina, cornea, lens, and blood samples were analyzed for copper ions using inductively coupled plasma mass spectrometry (ICP-MS).
Rabbits (n=2) were sacrificed after 42 days by intravenous injection of 0.3 ml/kg euthanasia solution and the eyes were enucleated for histological evaluations and reading for signs of inflammation, tissue damage, scarring and fibrosis. The anterior section of the eyes were fixed in 10% formaldehyde-glutaraldehyde solution, dehydrated in a graded series of alcohol, embedded in paraffin, and sectioned with a microtome. The sections were stained with appropriate staining (hematoxylin and eosin and Masson Trichrome).

The subject of a further series is albino guinea pigs. As to the method:
Progressive myopia occurs more often in albino guinea pigs than in their wild type counterparts, even without imposing diffusers or lenses. Guinea pigs were subjected to a cycle of 12 hours of light/12 hours of dark. An eye drop including 0.0025 mg/ml CuSO4 pentahydrate in phosphate buffered ophthalmic solution was administered at approximately 2 weeks of age to the right eyes (OD) of albino guinea pigs (n=4). Left eyes (OS) received control drops (ophthalmic vehicle only). Eye drops (approximately 30 μL) were administered 3 times per day for approximately 6 weeks. Refractive error was measured by a pediatric ophthalmologist prior to treatment on day 1 and at subsequent timepoints according to the schedule depicted in FIGS. 7A-7B. […] FIGS. 7A-7B present average refractive error measurements for the test subjects in each eye with error bars and linear fit, respectively.

Series [2] relates to New Zealand white rabbit. The note with it: 0.0025 mg/ml 3 times per day for 6 weeks vs vehicle and control groups; FIG. 8.
Description: New Zealand white rabbit right eyes were separated (n=6 per group) into treatment group (0.0025 mg/ml CuSO4 pentahydrate in phosphate buffered ophthalmic solution), vehicle group (phosphate buffered ophthalmic solution), and control group (no drops). Drops were administered 3 times per day for 6 weeks in treatment eyes. Animals were followed weekly for TOP measurements, topography and ocular response analyzer. At the end of the 6 weeks, rabbits were sacrificed and eye was immediately dissected within 30 minutes of sacrifice. Recovered corneas weight was recorded. Samples were reduced with NaBH4 at room temperature then washed with water twice, dried, and hydrolyzed with 6N HCl in vacuo for 18 hours at 110° C. Post hydrolysis, cross-link enrichment was carried out by using a cellulose mini-column method. LNL was measured by mass spectroscopy.
Series [3] has as its system New Zealand white rabbit. The conditions noted are these: 0.0016 mg/ml 3x/day for 24 days. As to the method:
New Zealand white rabbit right eyes (n=3) were treated with 0.0016 mg/ml CuSO4 3×/day for 24 days. Left eyes were treated with BSS (TID) for 24 days and served as controls. Corneal-OCT pictures were taken at baseline and at day 24.

Setting [4] is: 0.0016 mg/ml CuSO4 for 2 weeks vs untreated, FIG. 2.

Consider `[Cu]` [Cu, copper], for which the figures for the LOX enzyme activity result in the series with lysyl oxidase (LOX) and in the series with lysyl oxidase (LOX) (listed as copper) were “increased” and “dramatically increased”, respectively. Also, the corneal strength entry in the series on human cadaver corneas (FIG. 2 legend) is recorded as “increased”. Also, the corneal biomechanics entry with rabbit corneas is recorded as “improved”. For the same compound, in series [1], the “diopter measurements (mean K and at 3 mm), change vs control groups” value was “decreased”. Also, the “toxicity in dissected eye tissues” value with rabbits is reported as “no observed toxicity”.

Turning to `O.O.O.O.O.O=S(=O)([O-])[O-].[Cu+2]` [CuSO4 pentahydrate, copper (II) sulfate pentahydrate], the corneal biomechanics result with rabbit corneas is recorded as “comparable to that seen with laser cross-linking”. Further, the “histopathological analysis of dissected eyes” value in the series with albino guinea pigs (0.0025 mg/ml 3 times per day, approximately 6 weeks, data not shown) is “no observed toxicity”. Also, the “myopic progression (average refractive error) in the treatment eye” value in the series with albino guinea pigs (0.0025 mg/ml eye drop 3 times per day for approximately 6 weeks, OD vs vehicle OS, FIGS. 7A-7B) is “effective in reducing myopic progression”. For the same compound, in the series on albino guinea pigs (all eyes during the study, within normal limits, data not shown), the IOP measurements is given as 15-25 mmHg. The “LNL crosslinking in corneas” value with New Zealand white rabbit [2] is recorded as “increased”.

Turning to `O=S(=O)([O-])[O-].[Cu+2]` [CuSO4, copper (II) sulfate], in the series with human cadaver corneas (setting [4]), the corneal stiffness result is reported as “marked increase” and the radial strain entry is “decrease”. For the same compound, in the series on human cadaver corneas (at 20 mmHg), the “average peak radial strain induced by ocular pulse, treated vs untreated corneas” value was “about 1.5 times lower”. Besides, the “increase in corneal strength” value in the series on human cadaver corneas (from peak radial strain at 20 mmHg, treated vs untreated) is about 50%. The “diopter measurements (mean K and at 3 mm), change vs control groups” value in series [1] is reported as “greater decrease”. Besides, in the series on New Zealand white rabbit [3], the “cornea epithelial layer by OCT / gross toxicity to the corneas” value is “no gross toxicity” and the slit-lamp examination entry is “no inflammation or opacification”. Besides, the “central cornea flattening by OCT” value with New Zealand white rabbit [3] (right eyes n=3 vs BSS left eyes, FIGS. 6A-6F) was “cornea flattening in all 3 treatment eyes”.
